In patent publication US9828373B2, “2-amino-pyrido[2,3-D]pyrimidin-7(8H)-one derivatives as CDK inhibitors and uses thereof” (SUNSHINE LAKE PHARMA CO., LTD., priority 2014, dated 2017):
Like-named read-outs stand apart in the source and are kept apart here.

Experiments:
CDK6/CycD3 = CDK6/CycD3 (Homo sapiens, UniProt Q00534); experiment: Enzymatic inhibitory activity in vitro, CDK6 (Caliper mobility shift, FAM-labeled peptide); assay type: biochemical
Description: (§1) The materials are used in the following assay:
(§2) HEPES: 4-(2-Hydroxyethyl)piperazine-1-ethanesulfonic acid; Brij-35: Polyethylene Glycol Monoisotridecyl Ether; DTT: Dithiothreitol; EDTA: Ethylene Diamine Tetraacetic Acid; CDK4/CycD3: Cyclin dependent kinase 4; CDK6/CycD3: Cyclin dependent kinase 6; Peptide FAM-P22: fluorescein-labeled peptide 22; ATP: adenosine triphosphate; DMSO: dimethyl sulfoxide; Staurosporine; Coating Reagent #3;
(§3) 1. Preparation of 1× Kinase Base Buffer and Stop Buffer:
(§4) (1) 1× Kinase buffer without MnCl2 (50 mM HEPES, pH 7.5, 0.0015% Brij-35, 10 mM MgCl2, 2 mM DTT); (2) Stop buffer (100 mM HEPES, pH 7.5, 0.015% Brij-35, 0.2% Coating Reagent #3, 50 mM EDTA).
(§5) (1) The compound was diluted to 50× of the final desired highest inhibitor concentration in reaction by 100% DMSO. Transferring 100 μL of this compound dilution to a well in a 96-well plate. (2) The compound was diluted by transferring 20 μL of the compound dilution to 60 μL of 100% DMSO in the next well and so forth for a total of 10 concentrations. (3) 100 μL of 100% DMSO was added to two empty wells for no compound control and no enzyme control. (4) Intermediate plate was prepared by transferring 10 μL of compound from source plate to a new 96-well plate and adding 90 μL of 1× kinase buffer to each well of the intermediate plate. The compounds in intermediate plate were mixed for 10 min on shaker. (5) Assay plate was prepared by transferring 5 μL of each well from the 96-well intermediate plate to a 384-well plate in duplicates.
(§6) (1) 2.5× Enzyme solution was prepared by adding kinase in 1× kinase base buffer. (2) 2.5× Peptide solution was prepared by adding FAM-labeled peptide and ATP in the 1× kinase base buffer. (3) 2.5× Enzyme solution was transferred to the assay plate contained 5 μL of compound in 10% DMSO, which was incubated at room temperature for 10 min. (4) 10 μL of 2.5× […] solution was added to each well of the 384-well assay plate. (5) Kinase reaction and stopping, after incubating at 28° C. for specified period of time, 25 μL of stop buffer was added to stop reaction.
(§7) 4. Caliper Reading, Collect Data on Caliper.
(§8) (1) Copying conversion data from Caliper program; (2) Converting conversion values to inhibition values: Percent inhibition=(max−conversion)/(max−min)*100; “max” means the value of control without compound; “min” means the value of control without enzyme; (3) Fitting the data in XLfit to obtain IC50 values.

CDK4/CycD3 = CDK4/CycD3 (Homo sapiens, UniProt P11802); experiment: Enzymatic inhibitory activity in vitro, CDK4 (Caliper mobility shift, FAM-labeled peptide); assay type: biochemical
Description: as §1, §2, §3, §4, §5, §6, §7, §8

[1] = Pharmacokinetics in rats (iv and oral, plasma LC-MS/MS); assay type: in vivo, male SD rats; settings: rat
Description: The assay agents and samples are as shown below:
Propranolol: Propranolol (internal standard); MTBE: Methyl Tertiary Butyl Ether; Cremophor EL: polyoxyethylated castor oil; KolliphorHS 15: polyethylene glycol 12-hydroxystearate; DMSO: dimethylsulfoxide; PEG400: polyethylene glycol 400; 18 male SD rats.
Each test compound prepared was completely dissolved in a mixture of 5% DMSO+10% KolliphorHS 15+35% Saline or 5% DMSO+60% PEG400+35% Saline according solubility property thereof.
Grouping male SD rats weighing 190-250 g randomly to two groups; one group was administered with test compound at a dose of 1.0 mg/kg by intravenous injection, the other group was administered with test compound at a dose of 5.0 mg/kg by oral. After administering, blood samples of intravenous injection group were collected at time points of 0.0833, 0.25, 0.5, 1, 2, 5, 7 and 24 h from caudal vein; blood samples of oral group were collected at time points of 0.25, 0.5, 1, 2, 5, 7 and 24 h from caudal vein. Standard curve was plotted based on concentrations of the samples in a suitable range, the concentrations of test compounds in plasma samples were determined by using LC-MS/MS. Pharmacokinetic parameters were calculated according to drug concentration-time curve using a noncompartmental method by WinNonLin 6.3 software.

Chain of CDK4/CycD3 (P11802 whole entry, species assumed): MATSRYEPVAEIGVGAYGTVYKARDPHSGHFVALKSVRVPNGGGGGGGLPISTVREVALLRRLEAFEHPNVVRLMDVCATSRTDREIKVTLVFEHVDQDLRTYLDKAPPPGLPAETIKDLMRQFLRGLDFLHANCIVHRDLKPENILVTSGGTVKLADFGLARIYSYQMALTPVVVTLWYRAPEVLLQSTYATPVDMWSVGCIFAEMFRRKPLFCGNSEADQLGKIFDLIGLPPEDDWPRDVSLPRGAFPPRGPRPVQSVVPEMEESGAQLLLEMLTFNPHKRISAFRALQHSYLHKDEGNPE
Chain of CDK4/CycD3 (P30281 whole entry partner, species assumed): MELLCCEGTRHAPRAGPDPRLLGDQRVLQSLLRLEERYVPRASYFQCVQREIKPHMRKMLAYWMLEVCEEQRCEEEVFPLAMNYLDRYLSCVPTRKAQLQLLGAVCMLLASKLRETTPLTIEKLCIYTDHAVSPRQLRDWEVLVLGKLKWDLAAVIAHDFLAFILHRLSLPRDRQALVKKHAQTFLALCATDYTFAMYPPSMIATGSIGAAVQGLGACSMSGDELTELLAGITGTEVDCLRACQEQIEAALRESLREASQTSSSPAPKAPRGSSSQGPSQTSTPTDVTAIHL
Chain of CDK6/CycD3 (Q00534 whole entry, species assumed): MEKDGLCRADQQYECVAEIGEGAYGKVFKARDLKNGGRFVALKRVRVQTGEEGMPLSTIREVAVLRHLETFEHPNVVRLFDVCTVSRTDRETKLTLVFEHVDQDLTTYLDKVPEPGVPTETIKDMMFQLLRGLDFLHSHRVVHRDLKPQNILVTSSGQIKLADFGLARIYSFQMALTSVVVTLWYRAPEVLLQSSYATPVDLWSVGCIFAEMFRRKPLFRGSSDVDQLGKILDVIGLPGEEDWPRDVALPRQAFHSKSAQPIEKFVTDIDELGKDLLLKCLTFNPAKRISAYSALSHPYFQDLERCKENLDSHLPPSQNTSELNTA
Chain of CDK6/CycD3 (P30281 whole entry partner, species assumed): as the sequence (P30281 whole entry partner, species assumed) above

CC(=O)c1c(C)c2cnc(Nc3ccc4c(n3)CCN(C3CCNCC3)C4)nc2n(C2CCCC2)c1=O [Example 39]
IC50 (CDK6/CycD3): 51 nM
IC50 (CDK4/CycD3): 14 nM

CC(=O)c1c(C)c2cnc(Nc3ccc(N4CCNCC4)cn3)nc2n(C2CCCC2)c1=O [Palbociclib, reference compound]
AUC(0-inf) ([1]; plasma, male SD rats, iv, 1.0 mg/kg, read-out: AUCINF): 332 ng·h/mL
AUC(0-t) ([1]; plasma, male SD rats, iv, 1.0 mg/kg, read-out: AUClast): 294 ng·h/mL
Cmax ([1]; plasma, male SD rats, iv, 1.0 mg/kg, read-out: Cmax): 143 ng/mL
half-life ([1]; plasma, male SD rats, iv, 1.0 mg/kg, read-out: T1/2 (converted)): 2.72 h
Tmax ([1]; plasma, male SD rats, iv, 1.0 mg/kg, read-out: Tmax): 0.083 h
bioavailability ([1]; plasma, male SD rats, po 5.0 mg/kg versus iv 1.0 mg/kg, read-out: F (%)): 79.9%
AUC(0-inf) ([1]; plasma, male SD rats, po, 5.0 mg/kg, read-out: AUCINF): 1400 ng·h/mL
AUC(0-t) ([1]; plasma, male SD rats, po, 5.0 mg/kg, read-out: AUClast): 1280 ng·h/mL
Cmax ([1]; plasma, male SD rats, po, 5.0 mg/kg, read-out: Cmax): 156 ng/mL
half-life ([1]; plasma, male SD rats, po, 5.0 mg/kg, read-out: T1/2 (converted)): 4.28 h
Tmax ([1]; plasma, male SD rats, po, 5.0 mg/kg, read-out: Tmax): 2.67 h

CC(=O)c1c(C)c2cnc(Nc3ccc4c(ccn4C4CCNCC4)c3)nc2n(C2CCCC2)c1=O [Example 1, 6-Acetyl-8-cyclopentyl-5-methyl-2-((1-(piperidin-4-yl)-1H-indol-5-yl)amino)pyrido[2,3-d]pyrimidin-7(8H)-one]
IC50 (CDK6/CycD3): 29.2 nM
IC50 (CDK4/CycD3): 6.8 nM

CC(=O)c1c(C)c2cnc(Nc3ccc4c(n3)CCNC4)nc2n(C2CCCC2)c1=O [Example 3, 6-Acetyl-8-cyclopentyl-5-methyl-2-((5,6,7,8-tetrahydro-1,6-naphthyridin-2-yl)amino)pyrido[2,3-d]pyrimidin-7(8H)-one]
IC50 (CDK6/CycD3): 47 nM
IC50 (CDK4/CycD3): 5.7 nM
bioavailability ([1]; male, SD, in vivo): 101%
AUC(0-inf) ([1]; male, SD, in vivo, iv, 1 mg/kg): 587 ng·h/mL
AUC(0-t) ([1]; male, SD, in vivo, iv, 1 mg/kg): 485 ng·h/mL
Cmax ([1]; male, SD, in vivo, iv, 1 mg/kg): 141 ng/mL
Tmax ([1]; male, SD, in vivo, iv, 1 mg/kg): 0.42 h
half-life ([1]; male, SD, in vivo, iv, 1 mg/kg): 2.93 h
AUC(0-inf) ([1]; male, SD, in vivo, po, 5 mg/kg): 2970 ng·h/mL
AUC(0-t) ([1]; male, SD, in vivo, po, 5 mg/kg): 2930 ng·h/mL
Cmax ([1]; male, SD, in vivo, po, 5 mg/kg): 293 ng/mL
Tmax ([1]; male, SD, in vivo, po, 5 mg/kg): 4 h
half-life ([1]; male, SD, in vivo, po, 5 mg/kg): 3.91 h

CC(=O)c1c(C)c2cnc(Nc3ccc4c(n3)CCN(C(=O)CO)C4)nc2n(C2CCCC2)c1=O [Example 4, 6-Acetyl-8-cyclopentyl-2-((6-(2-hydroxyacetyl)-5,6,7,8-tetrahydro-1,6-naphthyridin-2-yl)amino)-5-methylpyrido[2,3-d]pyrimidin-7(8H)-one]
IC50 (CDK6/CycD3): 62 nM
IC50 (CDK4/CycD3): 17 nM

CC(=O)c1c(C)c2cnc(Nc3ncnc4c(C5=CCNCC5)csc34)nc2n(C2CCCC2)c1=O [Example 2, 6-Acetyl-8-cyclopentyl-5-methyl-2-((7-(1,2,3,6-tetrahydropyridin-4-yl)thieno[3,2-d]pyrimidin-4-yl)amino)pyrido[2,3-d]pyrimidin-7(8H)-one]
IC50 (CDK6/CycD3): 4810 nM
IC50 (CDK4/CycD3): 2390 nM

CC(=O)c1c(C)c2cnc(Nc3ccc4c(n3)CCN(CCC(F)(F)F)C4)nc2n(C2CCCC2)c1=O [Example 5, 6-Acetyl-8-cyclopentyl-5-methyl-2-((6-(3,3,3-trifluoropropyl)-5,6,7,8-tetrahydro-1,6-naphthyridin-2-yl)amino)pyrido[2,3-d]pyrimidin-7(8H)-one]
IC50 (CDK6/CycD3): 1060 nM
IC50 (CDK4/CycD3): 25 nM

CCN1CCc2nc(Nc3ncc4c(C)c(C(C)=O)c(=O)n(C5CCCC5)c4n3)ccc2C1 [Example 7, 6-Acetyl-2-((6-ethyl-5,6,7,8-tetrahydro-1,6-naphthyridin-2-yl)amino)-8-cyclopentyl-5-methylpyrido[2,3-d]pyrimidin-7(8H)-one]
IC50 (CDK6/CycD3): 83 nM
IC50 (CDK4/CycD3): 19 nM

CC(=O)c1c(C)c2cnc(Nc3ccc4c(n3)CCN(C(C)=O)C4)nc2n(C2CCCC2)c1=O [Example 6, 6-Acetyl-2-((6-acetyl-5,6,7,8-tetrahydro-1,6-naphthyridin-2-yl)amino)-8-cyclopentyl-5-methylpyrido[2,3-d]pyrimidin-7(8H)-one]
IC50 (CDK6/CycD3): 65 nM
IC50 (CDK4/CycD3): 20 nM

CC(=O)c1c(C)c2cnc(Nc3ccc4c(n3)CCN(C3COC3)C4)nc2n(C2CCCC2)c1=O [Example 41, 6-Acetyl-8-cyclopentyl-5-methyl-2-((6-(oxetan-3-yl)-5,6,7,8-tetrahydro-1,6-naphthyridin-2-yl)amino)pyrido[2,3-d]pyrimidin-7(8H)-one]
IC50 (CDK6/CycD3): 59 nM
IC50 (CDK4/CycD3): 18 nM

CC(=O)c1c(C)c2cnc(Nc3ccc4c(n3)CCN(C3CCN(C)CC3)C4)nc2n(C2CCCC2)c1=O [Example 40, 6-Acetyl-8-cyclopentyl-5-methyl-2-((6-(1-methylpiperidin-4-yl)-5,6,7,8-tetrahydro-1,6-naphthyridin-2-yl)amino)pyrido[2,3-d]pyrimidin-7(8H)-one]
IC50 (CDK6/CycD3): 25 nM
IC50 (CDK4/CycD3): 7.2 nM
